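Step 1: Grow cells in 96-well plates. Step 2: Expose to compound for 48 hours at 5 concentrations. Step 3: Interpolate endpoints linearly; if unreached, use highest concentration. At the GI50, growth is halved.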 Calls of active or inactive are those of the source. Rule as the data show it: active = GI50 up to about 1.1 µM and inactive = higher.
How the values were obtained:
Assay in all cases: NCI-60 cell line screen, 48 h
MDA-MB-435 = test system: MDA-MB-435
RXF 393 = test system: RXF 393
UACC-257 = test system: UACC-257
KM12 = test system: KM12
NCI-H226 = test system: NCI-H226
PC-3 = test system: PC-3
NCI-H23 = test system: NCI-H23
U-251 = test system: U-251
NCI-H460 = test system: NCI-H460
OVCAR-3 = test system: OVCAR-3
OVCAR-4 = test system: OVCAR-4
Malme-3M = test system: Malme-3M
SK-OV-3 = test system: SK-OV-3
MOLT-4 = test system: MOLT-4
SNB-19 = test system: SNB-19
HCT-15 = test system: HCT-15
OVCAR-8 = test system: OVCAR-8
Hs-578T = test system: Hs-578T
LOX IMVI = test system: LOX IMVI
MDA-N = test system: MDA-N

Row | SMILES | GI50 (MDA-MB-435) | GI50 (RXF 393) | GI50 (UACC-257) | GI50 (KM12) | GI50 (NCI-H226) | GI50 (PC-3) | GI50 (NCI-H23) | GI50 (U-251) | GI50 (NCI-H460) | GI50 (OVCAR-3) | GI50 (OVCAR-4) | GI50 (Malme-3M) | GI50 (SK-OV-3) | GI50 (MOLT-4) | GI50 (SNB-19) | GI50 (HCT-15) [µM] | GI50 (OVCAR-8) | GI50 (Hs-578T) | GI50 (LOX IMVI) | GI50 (MDA-N)
1 | Cc1ccc([Se](=C(C(=O)c2ccccc2)C(=O)c2ccccc2)c2ccc(C)cc2)cc1 | 20.5 µM (inactive) | 68.1 µM (inactive) | 17.5 µM (inactive) | 18.9 µM (inactive) | 20.2 µM (inactive) | 23.3 µM (inactive) | 18.8 µM (inactive) | 20.6 µM (inactive) | 25.5 µM (inactive) | 20.6 µM (inactive) | 16.4 µM (inactive) | 18.4 µM (inactive) | 43.7 µM (inactive) | 16 µM (inactive) | 27.4 µM (inactive) | 16.9 | 26.4 µM (inactive) | 22.8 µM (inactive) |  | 
2 | O=C(O)C1CCCCC1C(=O)Nn1cnnc1 (stereo not drawn) | > 100 µM (inactive) | > 100 µM (inactive) | > 100 µM (inactive) | > 100 µM (inactive) |  | > 100 µM (inactive) | > 100 µM (inactive) | > 100 µM (inactive) |  | > 100 µM (inactive) | > 100 µM (inactive) |  | > 100 µM (inactive) | > 100 µM (inactive) | > 100 µM (inactive) | > 100 | > 100 µM (inactive) |  | > 100 µM (inactive) | > 100 µM (inactive)
3 | CC(=O)Nc1cccc(N2C(=O)/C(=C\c3cccc(Oc4ccccc4)c3)S(=O)(=O)C2c2ccccc2)c1 (stereo not drawn) | 34 µM (inactive) | > 100 µM (inactive) | > 100 µM (inactive) | 68.5 µM (inactive) | > 100 µM (inactive) | 64.3 µM (inactive) | 97.7 µM (inactive) | 65.6 µM (inactive) | > 100 µM (inactive) | 45.4 µM (inactive) | 25.2 µM (inactive) | > 100 µM (inactive) | > 100 µM (inactive) | 16.1 µM (inactive) | > 100 µM (inactive) | > 100 | 37.1 µM (inactive) |  | 27.7 µM (inactive) | 33.1 µM (inactive)
4 | CN(C(=O)c1cc2c(s1)sc1c(=O)n(C)c3ccccc3c12)c1ccccc1 | 0.828 µM (active) | 21.8 µM (inactive) | 29.4 µM (inactive) | 0.729 µM (active) | 5.48 µM (inactive) | 4.68 µM (inactive) | 7.73 µM (inactive) | 10.9 µM (inactive) | 2.43 µM (inactive) | 7.83 µM (inactive) | 42.7 µM (inactive) | 6.56 µM (inactive) | 22.2 µM (inactive) | 3.63 µM (inactive) | 31.3 µM (inactive) | 1.72 | 11.2 µM (inactive) |  | 18.5 µM (inactive) | 0.61 µM (active)
5 | N#C/C(=C\c1cc(Br)c(O)c(Br)c1)c1cccnc1 |  | 41.3 µM (inactive) | 23.6 µM (inactive) | 27.2 µM (inactive) | 21.5 µM (inactive) | 22 µM (inactive) | 21 µM (inactive) | 16.7 µM (inactive) | 32.5 µM (inactive) | 21 µM (inactive) | 33.3 µM (inactive) | 17.2 µM (inactive) | 42.2 µM (inactive) | 23.9 µM (inactive) | 39.1 µM (inactive) | 17.7 | 35.6 µM (inactive) |  |  | > 100 µM (inactive)
6 | O=c1ccn2n1Cc1ccccc1C2 | > 100 µM (inactive) | > 100 µM (inactive) | > 100 µM (inactive) | > 100 µM (inactive) | > 100 µM (inactive) | > 100 µM (inactive) | > 100 µM (inactive) | > 100 µM (inactive) | > 100 µM (inactive) | > 100 µM (inactive) | > 100 µM (inactive) | > 100 µM (inactive) | > 100 µM (inactive) | > 100 µM (inactive) | > 100 µM (inactive) | > 100 | > 100 µM (inactive) | > 100 µM (inactive) | > 100 µM (inactive) | 
7 | CCOC(=O)c1sc2nc(SC)nc(Nc3ccc4c(c3)OCCCO4)c2c1N | 11.1 µM (inactive) | 11.8 µM (inactive) | 7.82 µM (inactive) | 24.2 µM (inactive) | 42.2 µM (inactive) | 20 µM (inactive) | 5.92 µM (inactive) | 46.5 µM (inactive) |  | 16.5 µM (inactive) | 5.47 µM (inactive) | 16.7 µM (inactive) | 55.6 µM (inactive) | 2.55 µM (inactive) | > 100 µM (inactive) | 10.9 | 11.4 µM (inactive) |  | 34.8 µM (inactive) | 20.5 µM (inactive)
8 | CCOC(=O)c1sc2nc(SC)nc3c2c1NCN3C1CC1 | > 100 µM (inactive) | > 100 µM (inactive) | > 100 µM (inactive) | > 100 µM (inactive) | > 100 µM (inactive) | > 100 µM (inactive) | > 100 µM (inactive) | > 100 µM (inactive) | > 100 µM (inactive) | > 100 µM (inactive) | > 100 µM (inactive) | > 100 µM (inactive) | > 100 µM (inactive) |  | > 100 µM (inactive) | > 100 | 36.6 µM (inactive) | 74.5 µM (inactive) | > 100 µM (inactive) | 
9 | Nc1nc(Cl)c2ncn(Cc3ccccc3CCl)c2n1 | 6.07 µM (inactive) |  | 13.1 µM (inactive) | 15.7 µM (inactive) | 2.64 µM (inactive) | 15 µM (inactive) | 3.03 µM (inactive) | 3.46 µM (inactive) | 5.66 µM (inactive) | 3.37 µM (inactive) | 2.48 µM (inactive) | 3.36 µM (inactive) | 15.3 µM (inactive) | 5.19 µM (inactive) | 6.05 µM (inactive) | 2.69 | 3.86 µM (inactive) | 7.76 µM (inactive) | 3.92 µM (inactive) | 
10 | CC(C)(C)c1cc(Oc2ccc(C#N)c(C#N)c2)cc(C(C)(C)C)c1 |  | > 100 µM (inactive) | > 100 µM (inactive) | > 100 µM (inactive) | > 100 µM (inactive) |  | > 100 µM (inactive) | 85.5 µM (inactive) | 39.9 µM (inactive) | > 100 µM (inactive) | > 100 µM (inactive) | > 100 µM (inactive) | > 100 µM (inactive) | > 100 µM (inactive) | > 100 µM (inactive) | 48.3 | > 100 µM (inactive) |  | 33.4 µM (inactive) | 
11 | COC(=O)c1cc2c3c(ccc2[nH]1)N(C(=O)c1cc2cc(OC)c(OC)c(OC)c2[nH]1)CC3CCl (stereo not drawn) | 13.7 µM (inactive) | 5.51 µM (inactive) | 81.5 µM (inactive) | 6.4 µM (inactive) | 14.3 µM (inactive) | 4.31 µM (inactive) | 5.56 µM (inactive) | 6.58 µM (inactive) | 2.79 µM (inactive) | > 24.4 µM (inactive) | 8.34 µM (inactive) | 8.59 µM (inactive) | > 100 µM (inactive) | 1.57 µM (inactive) | > 100 µM (inactive) | 5.71 | 12.6 µM (inactive) | 8.45 µM (inactive) | 4.98 µM (inactive) | 
12 | Clc1ccc(-n2nnc(C3=NCCCN3)c2-c2ccccc2)cc1 |  | > 100 µM (inactive) | > 100 µM (inactive) | > 100 µM (inactive) | > 100 µM (inactive) |  | > 100 µM (inactive) | > 100 µM (inactive) | > 100 µM (inactive) | > 100 µM (inactive) | > 100 µM (inactive) | > 100 µM (inactive) | > 100 µM (inactive) | > 100 µM (inactive) | > 100 µM (inactive) | > 100 | > 100 µM (inactive) |  | > 100 µM (inactive) | 
